Measured values as given in the supplement of paper PMC10307832.

Tests used:
Assay in all cases: relative viability (nuclei count vs DMSO), 5 days (fraction); higher = more cells survive
[1] = compound: NS(=O)(=O)OC[C@@H]1C[C@@H](n2ccc3c(N[C@H]4CCc5ccccc54)ncnc32)C[C@@H]1O [MLN4924] + C[C@]1(O)C[C@@H](c2nc(-c3ccc4ccc(-c5ccccc5)nc4c3)c3c(N)nccn32)C1 [Linsitinib] (partner 1 µM)
Method in brief: (§1)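 Values are medians from duplicate plates. Each reflects relative viability, defined as the nuclei count of treated wells over that of vehicle wells. Lung cancer cell lines in 1536-well plates were pin-tool dosed one day after seeding with one drug alone or with a fixed anchor-drug dose plus five library-drug doses (not always all listed) in √10 steps, then fixed, stained and imaged at 4× after 5 days.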

[2] = compound: CC[C@H](C)N1C=C(C2=C(C=C(C=C21)C3=CN=C(C=C3)N4CCNCC4)C(=O)NCC5=C(C=C(NC5=O)C)C)C [GSK126] + C[C@]1(O)C[C@@H](c2nc(-c3ccc4ccc(-c5ccccc5)nc4c3)c3c(N)nccn32)C1 [Linsitinib] (partner 1 µM)
Method in brief: as §1

[3] = compound: CC[C@H](C)N1C=C(C2=C(C=C(C=C21)C3=CN=C(C=C3)N4CCNCC4)C(=O)NCC5=C(C=C(NC5=O)C)C)C [GSK126] + CC(=O)c1c(C)c2cnc(Nc3ccc(N4CCNCC4)cn3)nc2n(C2CCCC2)c1=O [Palbociclib] (partner 0.5 µM)
Method in brief: as §1

[4] = compound: CC[C@H](C)N1C=C(C2=C(C=C(C=C21)C3=CN=C(C=C3)N4CCNCC4)C(=O)NCC5=C(C=C(NC5=O)C)C)C [GSK126] + O=C(CCCCCCC(=O)Nc1ccccc1)NO [Vorinostat] (partner 1 µM)
Method in brief: as §1

EMC-BAC-2
relative viability ([1]; first compound 0.04 µM): 0.805
relative viability ([1]; first compound 0.1265 µM): 0.547
relative viability ([1]; first compound 0.4 µM): 0.237
relative viability ([1]; first compound 1.265 µM): 0.179
relative viability ([1]; first compound 4 µM): 0.163
relative viability ([2]; first compound 0.08 µM): 0.798
relative viability ([2]; first compound 0.253 µM): 0.841
relative viability ([2]; first compound 0.8 µM): 0.771
relative viability ([2]; first compound 2.53 µM): 0.824
relative viability ([2]; first compound 8 µM): 0.839
relative viability ([3]; first compound 0.08 µM): 0.519
relative viability ([3]; first compound 0.253 µM): 0.515
relative viability ([3]; first compound 0.8 µM): 0.516
relative viability ([3]; first compound 2.53 µM): 0.503
relative viability ([3]; first compound 8 µM): 0.499
relative viability ([4]; first compound 0.08 µM): 0.427
relative viability ([4]; first compound 0.253 µM): 0.4
relative viability ([4]; first compound 0.8 µM): 0.442
relative viability ([4]; first compound 2.53 µM): 0.451
relative viability ([4]; first compound 8 µM): 0.499

EKVX
relative viability ([1]; first compound 0.04 µM): 0.949
relative viability ([1]; first compound 0.1265 µM): 0.653
relative viability ([1]; first compound 0.4 µM): 0.471
relative viability ([1]; first compound 1.265 µM): 0.169
relative viability ([1]; first compound 4 µM): 0.127
relative viability ([2]; first compound 0.08 µM): 1.04
relative viability ([2]; first compound 0.253 µM): 1.12
relative viability ([2]; first compound 0.8 µM): 0.918
relative viability ([2]; first compound 2.53 µM): 1.01
relative viability ([2]; first compound 8 µM): 0.885
relative viability ([3]; first compound 0.08 µM): 0.455
relative viability ([3]; first compound 0.253 µM): 0.366
relative viability ([3]; first compound 0.8 µM): 0.38
relative viability ([3]; first compound 2.53 µM): 0.405
relative viability ([3]; first compound 8 µM): 0.363
relative viability ([4]; first compound 0.08 µM): 0.778
relative viability ([4]; first compound 0.253 µM): 0.659
relative viability ([4]; first compound 0.8 µM): 0.708
relative viability ([4]; first compound 2.53 µM): 0.687
relative viability ([4]; first compound 8 µM): 0.574

NCI-H358
relative viability ([1]; first compound 0.04 µM): 0.918
relative viability ([1]; first compound 0.1265 µM): 1.06
relative viability ([1]; first compound 0.4 µM): 0.304
relative viability ([1]; first compound 1.265 µM): 0.183
relative viability ([1]; first compound 4 µM): 0.181
relative viability ([2]; first compound 0.08 µM): 0.939
relative viability ([2]; first compound 0.253 µM): 0.768
relative viability ([2]; first compound 0.8 µM): 0.785
relative viability ([2]; first compound 2.53 µM): 0.675
relative viability ([2]; first compound 8 µM): 0.738
relative viability ([3]; first compound 0.08 µM): 0.13
relative viability ([3]; first compound 0.253 µM): 0.131
relative viability ([3]; first compound 0.8 µM): 0.12
relative viability ([3]; first compound 2.53 µM): 0.146
relative viability ([3]; first compound 8 µM): 0.136
relative viability ([4]; first compound 0.08 µM): 0.767
relative viability ([4]; first compound 0.253 µM): 0.708
relative viability ([4]; first compound 0.8 µM): 0.644
relative viability ([4]; first compound 2.53 µM): 0.68
relative viability ([4]; first compound 8 µM): 0.672

LOU-NH91
relative viability ([1]; first compound 0.04 µM): 1.01
relative viability ([1]; first compound 0.1265 µM): 1.14
relative viability ([1]; first compound 0.4 µM): 0.961
relative viability ([1]; first compound 1.265 µM): 0.561
relative viability ([1]; first compound 4 µM): 0.472
relative viability ([2]; first compound 0.08 µM): 0.975
relative viability ([2]; first compound 0.253 µM): 0.884
relative viability ([2]; first compound 0.8 µM): 0.924
relative viability ([2]; first compound 2.53 µM): 0.977
relative viability ([2]; first compound 8 µM): 0.973
relative viability ([3]; first compound 0.08 µM): 0.449
relative viability ([3]; first compound 0.253 µM): 0.541
relative viability ([3]; first compound 0.8 µM): 0.523
relative viability ([3]; first compound 2.53 µM): 0.536
relative viability ([3]; first compound 8 µM): 0.57
relative viability ([4]; first compound 0.08 µM): 0.909
relative viability ([4]; first compound 0.253 µM): 0.878
relative viability ([4]; first compound 0.8 µM): 0.781
relative viability ([4]; first compound 2.53 µM): 0.957
relative viability ([4]; first compound 8 µM): 0.905

NCI-H1437
relative viability ([1]; first compound 0.04 µM): 0.959
relative viability ([1]; first compound 0.1265 µM): 0.828
relative viability ([1]; first compound 0.4 µM): 0.466
relative viability ([1]; first compound 1.265 µM): 0.221
relative viability ([1]; first compound 4 µM): 0.103
relative viability ([2]; first compound 0.08 µM): 1.07
relative viability ([2]; first compound 0.253 µM): 1.07
relative viability ([2]; first compound 0.8 µM): 0.954
relative viability ([2]; first compound 2.53 µM): 0.983
relative viability ([2]; first compound 8 µM): 0.938
relative viability ([3]; first compound 0.08 µM): 0.313
relative viability ([3]; first compound 0.253 µM): 0.278
relative viability ([3]; first compound 0.8 µM): 0.293
relative viability ([3]; first compound 2.53 µM): 0.279
relative viability ([3]; first compound 8 µM): 0.316
relative viability ([4]; first compound 0.08 µM): 0.902
relative viability ([4]; first compound 0.253 µM): 0.885
relative viability ([4]; first compound 0.8 µM): 0.774
relative viability ([4]; first compound 2.53 µM): 0.77
relative viability ([4]; first compound 8 µM): 0.763

H3255
relative viability ([1]; first compound 0.04 µM): 0.927
relative viability ([1]; first compound 0.1265 µM): 0.593
relative viability ([1]; first compound 0.4 µM): 0.354
relative viability ([1]; first compound 1.265 µM): 0.201
relative viability ([1]; first compound 4 µM): 0.257
relative viability ([2]; first compound 0.08 µM): 0.99
relative viability ([2]; first compound 0.253 µM): 0.96
relative viability ([2]; first compound 0.8 µM): 0.945
relative viability ([2]; first compound 2.53 µM): 0.893
relative viability ([2]; first compound 8 µM): 0.874
relative viability ([3]; first compound 0.08 µM): 0.291
relative viability ([3]; first compound 0.253 µM): 0.316
relative viability ([3]; first compound 0.8 µM): 0.319
relative viability ([3]; first compound 2.53 µM): 0.296
relative viability ([3]; first compound 8 µM): 0.31
relative viability ([4]; first compound 0.08 µM): 0.821
relative viability ([4]; first compound 0.253 µM): 0.865
relative viability ([4]; first compound 0.8 µM): 0.842
relative viability ([4]; first compound 2.53 µM): 0.817
relative viability ([4]; first compound 8 µM): 0.794

NCI-H1666
relative viability ([1]; first compound 0.04 µM): 1.01
relative viability ([1]; first compound 0.1265 µM): 0.504
relative viability ([1]; first compound 0.4 µM): 0.263
relative viability ([1]; first compound 1.265 µM): 0.225
relative viability ([1]; first compound 4 µM): 0.252
relative viability ([2]; first compound 0.08 µM): 0.857
relative viability ([2]; first compound 0.253 µM): 1.01
relative viability ([2]; first compound 0.8 µM): 0.898
relative viability ([2]; first compound 2.53 µM): 0.768
relative viability ([2]; first compound 8 µM): 1.08
relative viability ([3]; first compound 0.08 µM): 0.642
relative viability ([3]; first compound 0.253 µM): 0.613
relative viability ([3]; first compound 0.8 µM): 0.6
relative viability ([3]; first compound 2.53 µM): 0.636
relative viability ([3]; first compound 8 µM): 0.692
relative viability ([4]; first compound 0.08 µM): 1.15
relative viability ([4]; first compound 0.253 µM): 1
relative viability ([4]; first compound 0.8 µM): 0.912
relative viability ([4]; first compound 2.53 µM): 0.978
relative viability ([4]; first compound 8 µM): 1.11
